From the NIST ThermoML archive (doi:10.1007/s10765-012-1371-1)

Test: xn = mol fraction of the nth substance listed
Settings: 101 kPa, Liquid

CCCCOCC [butyl ethyl ether] + CCC(C)Cl
viscosity [mPa·s]
Settings	283.15 K	288.15 K	293.15 K	298.15 K	303.15 K	308.15 K	313.15 K
x2 = 0	0.4796	0.4509	0.4242	0.399	0.3756	0.356	0.3416
x2 = 0.0525	0.4785	0.4498	0.4233	0.3983	0.3749	0.3552	0.3404
x2 = 0.0974	0.4776	0.4489	0.4223	0.3974	0.374	0.3541	0.3392
x2 = 0.2001	0.475	0.4462	0.4203	0.3963	0.3732	0.3533	0.3379
x2 = 0.3027	0.4724	0.4436	0.4183	0.395	0.3724	0.3529	0.3372
x2 = 0.4	0.4697	0.4409	0.4165	0.394	0.3718	0.3523	0.3364
x2 = 0.5248	0.4665	0.4384	0.4148	0.3933	0.3716	0.3523	0.3361
x2 = 0.6016	0.4647	0.4368	0.4139	0.393	0.3716	0.3523	0.336
x2 = 0.7006	0.463	0.4353	0.413	0.393	0.3721	0.353	0.3363
x2 = 0.7993	0.462	0.4346	0.4132	0.3939	0.3735	0.3545	0.3376
x2 = 0.8997	0.4619	0.4349	0.4143	0.3959	0.3759	0.3569	0.3396
x2 = 0.9502	0.4623	0.4356	0.4152	0.3972	0.3775	0.3587	0.3414
